Experimental findings from article PMC4208844 (PLoS ONE, 2014) are described below.

Series [1] can be described thus: MTT cytotoxicity test in LS174T cells. As to conditions: human. The protocol:
(§1) A transiently transfected LS174T human colon adenocarcinoma cells were used for assessment of PXR transcriptional activity. […] The reporter plasmid was transiently transfected to LS174T cells by lipofection (FuGENE 6). Cells were incubated for 24 h with tested compounds and/or vehicle (DMSO; 0.1% v/v), in the presence or absence of RIF (10 µM; LS174T cells). After the treatments, cells were lysed and luciferase activity was measured. In parallel, cell viability was determined by conventional MTT test [MTT = 3-(4,5-dimethylthiazol-2-yl)-2,5-diphenyltetrazolium bromide]; briefly: After the treatment, culture medium was replaced with fresh one and 100 µL of MTT reagent (5 mg/mL PBS) was added. Three hours later, the medium was removed, and cells were washed with PBS and lysed for 5 min with 1 mL of DMSO containing 1% ammonia. The lysate was diluted 20 times with DMSO (+1% ammonia) and absorbance at 540 nm was measured against blank (DMSO+1% ammonia) (TECAN, Schoeller Instruments LLC). Results were normalized to the control value (i.e. 100×A sample/A control) and expressed as percentage of control.

Another series concerns CYP3A4/5. Description: CYP3A4/5 catalytic activity, testosterone 6β-hydroxylation in human liver microsomes. As to conditions: pH 7.4, probe testosterone (6β-hydroxylation).
In a further series the test system is CYP3A4 protein. Briefly: CYP3A4 protein expression (Western blot) in HepG2 cells. The class given is cell-based, human. As to conditions: 48 h. The method, then: Human colon adenocarcinoma cells LS174T (ECACC No. 87060401) and human hepatocellular carcinoma cells HepG2 (ECACC No. 85011430) were purchased from ECACC and were cultured in as recommended by manufacturer. Primary human hepatocytes used in this study were obtained from two sources: (i) from multiorgan donors HH52 and […] (male; 71 years); the use of liver cells of donors HH52 and HH54 was approved by “Ethical committee at the Faculty Hospital Olomouc”, and it was in accordance with Transplantation law #285/2002 Sb; “Ethical committee at the Faculty Hospital Olomouc” waived the authors from obtaining consent from the next of kin, regarding human hepatocytes obtained from liver donors HH52 and HH54. (ii) long-term human hepatocytes in monolayer Batch HEP220770 (person) were purchased from Biopredic International (Biopredic International, Rennes, France). Cells were cultured in serum-free medium. Cultures were maintained at 37°C and 5% CO2 in a humidified incubator.
Total protein extracts were prepared as described elsewhere. SDS-PAGE gels (10%) were run according to the general procedure followed by the protein transfer onto PVDF membrane. The membrane was saturated with 5% non-fat dried milk. […] The density of bands was measured by densitometry.

A further series deals with T1, pregnane X receptor PXR (Homo sapiens, UniProt O75469).
T1 sequence (O75469 1-434): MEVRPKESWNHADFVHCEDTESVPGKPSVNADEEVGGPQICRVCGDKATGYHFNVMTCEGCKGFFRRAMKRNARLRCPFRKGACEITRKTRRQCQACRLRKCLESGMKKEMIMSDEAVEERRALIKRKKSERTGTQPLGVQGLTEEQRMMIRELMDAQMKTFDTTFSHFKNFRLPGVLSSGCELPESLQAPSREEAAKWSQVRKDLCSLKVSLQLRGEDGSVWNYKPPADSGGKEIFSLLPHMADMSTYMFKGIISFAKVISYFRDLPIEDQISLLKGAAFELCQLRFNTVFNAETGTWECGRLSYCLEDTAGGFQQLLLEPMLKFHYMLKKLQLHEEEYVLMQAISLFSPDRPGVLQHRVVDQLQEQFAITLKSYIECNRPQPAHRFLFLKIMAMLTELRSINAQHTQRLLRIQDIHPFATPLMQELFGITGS
As to conditions: read-out: PXR antagonist IC50; transfected LS174T cells; 24 h; in the presence of RIF (10 µM).

The subject of the next series is LS174T cells. Briefly: MTT cytotoxicity test in LS174T cells. As to conditions: read-out: MTT test IC50 (cytotoxicity); LS174T cells; 24 h incubation. The protocol: as §1

Molecule `CC(=O)N1CCN(c2ccc(OC[C@@H]3CO[C@@](Cn4ccnc4)(c4ccc(Cl)cc4Cl)O3)cc2)CC1` [(−)-KET, (2S,4R)-(−)-KET] registered a concentration for half-maximal inhibition (IC50) at 24 h in series [1] of 57.5 µM.

As for `CC(=O)N1CCN(c2ccc(OCC3COC(Cn4ccnc4)(c4ccc(Cl)cc4Cl)O3)cc2)CC1` (racemic) [(rac)-KET, ketoconazole], the activity at 10 µM in the series with CYP3A4/5 came to 3%. Further, 50.3 µM corresponded to half-maximal inhibition in series [1] (IC50 at 24 h). Besides, in the series on CYP3A4 protein, the “CYP3A4 protein induction (in words)” value is given as “did not find convincing induction”.

With `CC(=O)N1CCN(c2ccc(OC[C@H]3CO[C@](Cn4ccnc4)(c4ccc(Cl)cc4Cl)O3)cc2)CC1` [(+)-KET, (2R,4S)-(+)-KET], the values for the 50% inhibitory concentration (IC50) at pregnane X receptor PXR and with LS174T cells were 41.2 µM and 52.7 µM, respectively.
